# Molecular target: T1, Farnesyltransferase (Saccharomyces cerevisiae S288c, UniProt P22007+P29703)
# T1 sequence (P29703 whole entry): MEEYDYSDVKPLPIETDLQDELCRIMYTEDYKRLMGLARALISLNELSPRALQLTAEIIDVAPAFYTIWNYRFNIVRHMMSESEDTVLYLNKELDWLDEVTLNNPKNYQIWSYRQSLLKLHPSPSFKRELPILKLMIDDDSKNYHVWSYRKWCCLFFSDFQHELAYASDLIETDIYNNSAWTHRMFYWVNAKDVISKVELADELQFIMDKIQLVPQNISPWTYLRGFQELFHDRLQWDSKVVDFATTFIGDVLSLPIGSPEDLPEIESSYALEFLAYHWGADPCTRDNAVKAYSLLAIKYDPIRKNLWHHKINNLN
# T1 sequence (P22007 whole entry): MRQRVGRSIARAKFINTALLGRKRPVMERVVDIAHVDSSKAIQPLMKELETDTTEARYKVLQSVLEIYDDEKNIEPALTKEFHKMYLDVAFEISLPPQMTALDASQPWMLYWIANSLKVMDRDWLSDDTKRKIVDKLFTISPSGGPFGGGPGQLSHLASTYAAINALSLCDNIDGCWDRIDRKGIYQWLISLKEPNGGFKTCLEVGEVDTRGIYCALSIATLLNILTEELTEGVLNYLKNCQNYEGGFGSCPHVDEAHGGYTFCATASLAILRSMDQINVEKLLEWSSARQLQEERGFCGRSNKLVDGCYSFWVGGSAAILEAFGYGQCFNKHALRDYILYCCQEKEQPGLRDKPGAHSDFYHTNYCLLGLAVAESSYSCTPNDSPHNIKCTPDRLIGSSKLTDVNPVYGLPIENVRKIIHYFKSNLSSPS
# Experiment: Inhibitory activity against yeast farnesyltransferase
# Format: protein-complex assay
row,IC50 [nM],Structure (SMILES)
1,1100,Cc1ccc(CC(=O)Nc2ccc(NC(=O)CCCCCc3ccccc3)cc2C(=O)c2ccccc2)cc1
2,2000,Cc1ccc(CC(=O)Nc2ccc(NC(=O)Cc3ccccc3)cc2C(=O)c2ccccc2)cc1
3,12,CCC(C)[C@@H](CN(CC(=O)N[C@@H](CCSC)C(=O)O)Cc1cccc2ccccc12)NC(=O)CC1CN(Cc2ccc(C#N)cc2)C=N1 (some centres undefined)
4,6000,Cc1ccc(CC(=O)Nc2ccc(NC(=O)c3ccccc3)cc2C(=O)c2ccccc2)cc1
5,390,Cc1ccc(CC(=O)Nc2ccc(NC(=O)CCCCc3ccccc3)cc2C(=O)c2ccccc2)cc1
6,530,Cc1ccc(CC(=O)Nc2ccc(NC(=O)CCCc3ccccc3)cc2C(=O)c2ccccc2)cc1
7,0.1,CSCC[C@H](NC(=O)c1ccc(CN(Cc2ccccc2)c2cccnc2)cc1-c1ccccc1C)C(=O)O
8,0.4,CSCC[C@H](NC(=O)c1ccc(COc2cccnc2)cc1-c1ccccc1C)C(=O)O
9,455,Cc1ccc(CC(=O)Nc2ccc(NC(=O)/C=C/c3csc(-c4ccc([N+](=O)[O-])cc4)n3)cc2C(=O)c2ccccc2)cc1
10,5.4,CCC(C)[C@@H](CN(CC(=O)N[C@@H](CCSC)C(=O)O)Cc1cccc2ccccc12)NC(=O)CSCc1ccc(C#N)cc1 (some centres undefined)
11,6,CSCC[C@H](NC(=O)c1ccc(COCc2ccc(-c3ccccc3)o2)cc1-c1ccccc1)C(=O)O
12,925,Cc1ccc(CC(=O)Nc2ccc(NC(=O)/C=C/c3ccc(-c4ccc(Br)cc4)o3)cc2C(=O)c2ccccc2)cc1
13,6300,Cc1ccc(CC(=O)Nc2ccc(NC(=O)/C=C/c3ccc(-c4ccc(Cl)cc4)o3)cc2C(=O)c2ccccc2)cc1
14,2000,Cc1ccc(CC(=O)Nc2ccc(NC(=O)CCc3ccccc3)cc2C(=O)c2ccccc2)cc1
